How the values were obtained:
Dipeptidyl peptidase 4 [1] = target: T1, Dipeptidyl peptidase 4 (Homo sapiens, UniProt P27487); assay: Inhibition of human placental DPP4
Dipeptidyl peptidase 4 [2] = target: T1, Dipeptidyl peptidase 4; assay: Inhibition of human placental DPP4 at pH 2
Dipeptidyl peptidase 4 [3] = target: T1, Dipeptidyl peptidase 4; assay: Inhibition of human placental DPP4 at pH 8

T1 sequence (P27487 whole entry): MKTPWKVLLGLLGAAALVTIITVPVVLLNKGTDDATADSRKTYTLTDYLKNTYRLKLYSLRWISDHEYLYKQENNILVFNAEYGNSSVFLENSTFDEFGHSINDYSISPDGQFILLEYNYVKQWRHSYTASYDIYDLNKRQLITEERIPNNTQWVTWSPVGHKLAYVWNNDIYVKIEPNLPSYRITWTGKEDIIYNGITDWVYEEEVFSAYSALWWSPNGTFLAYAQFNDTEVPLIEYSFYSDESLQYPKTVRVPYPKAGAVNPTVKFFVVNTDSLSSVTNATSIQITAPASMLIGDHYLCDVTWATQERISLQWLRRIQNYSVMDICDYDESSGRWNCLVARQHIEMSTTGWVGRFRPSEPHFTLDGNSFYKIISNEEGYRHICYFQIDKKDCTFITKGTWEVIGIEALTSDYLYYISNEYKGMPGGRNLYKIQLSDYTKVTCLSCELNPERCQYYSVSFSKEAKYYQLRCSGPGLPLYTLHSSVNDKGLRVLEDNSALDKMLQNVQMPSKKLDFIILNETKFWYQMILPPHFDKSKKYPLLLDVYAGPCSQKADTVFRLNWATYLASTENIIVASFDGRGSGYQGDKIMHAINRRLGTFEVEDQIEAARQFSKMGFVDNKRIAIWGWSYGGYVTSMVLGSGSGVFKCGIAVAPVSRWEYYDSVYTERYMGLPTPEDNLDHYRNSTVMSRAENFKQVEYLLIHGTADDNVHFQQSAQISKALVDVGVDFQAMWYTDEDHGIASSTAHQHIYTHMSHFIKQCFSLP

Ki (Dipeptidyl peptidase 4 [1]) [nM] | IC50 (Dipeptidyl peptidase 4 [2]) [nM] | IC50 (Dipeptidyl peptidase 4 [3]) [nM] | Compound
2.3 | 5.3 | 4.2 | C[C@@H](B(O)O)N1CC[C@@H](N)C1=O
1100 | 480 | 460 | C[C@@H](B(O)O)N1CC[C@H](N)C1=O
